Starred links: 1 amine or outer side, 2 acyl side, 3 side chain; linkers in the order of their positions; H or OH if unused. Positions of bridges follow the written chain, without caps; N, C: chain ends. Residues, ends and D or L forms follow the SMILES beside them. *: point of attachment. X9 = CC(C)[C@@H](CNC(N)=O)NC(=O)NC[C@H](CSCc1ccc(-c2ccc(C[*:1])cc2)cc1)NC(=O)NC[C@H](C)N[*:2]; X2 = CC(C)[C@@H](CNC(N)=O)NC(=O)NC[C@H](C)NC(=O)NC[C@H](CSCC(=O)NCCNC(=O)C[*:1])N[*:2]; X1 = CC(C)[C@@H](CNC(N)=O)NC(=O)NC[C@H](C)NC(=O)NC[C@H](CSCCCCCC[*:1])N[*:2]; X13 = CC(C)[C@@H](CNC(N)=O)NC(=O)NC[C@H](C)NC(=O)NC[C@H](CSCCCCC[*:1])N[*:2]; X5 = CC(C)[C@@H](CNC(N)=O)NC(=O)NC[C@H](C)NC(=O)NC[C@H](CSCCC[*:1])N[*:2]; X3 = CC(C)[C@@H](CNC(N)=O)NC(=O)NC[C@H](C)NC(=O)NC[C@H](C)N*; CH2CONHCH2CH2NHCOCH2 = O=C(C[*:1])NCCNC(=O)C[*:2]; NH(CH2CH2O)2(CH2)6Cl = ClCCCCCCOCCOCCN*; pXylylene = c1cc(C[*:2])ccc1C[*:1]; Suc = O=C(CCC(=O)[*:2])[*:1]; X14 = C(=C\C[*:2])/C[*:1]; X4 = C(C[*:1])C[*:2]
What was measured:
[1] = target: Tumour suppressor protein p53/Mdm4 (Homo sapiens) (UniProt P04637+O15151); assay: PROTAC activity at human DMX/p53 extracted from Escherichia coli interaction at 100 nM by measuring inhibition of interaction by time-resolved fluorescence energy transfer (TRFRET) detection method relative to control; type: protein assay
[2] = target: Tumour suppressor p53/oncoprotein Mdm2 (Homo sapiens) (UniProt P04637+Q00987); assay: PROTAC activity at human MDM2/p53 extracted from Escherichia coli interaction by measuring inhibition of interaction at 100 nM by time-resolved fluorescence energy transfer (TRFRET) detection method relative to control; type: protein assay
[3] = target: Tumour suppressor protein p53/Mdm4 (Homo sapiens, UniProt O15151); assay: PROTAC activity at human DMX/p53 extracted from Escherichia coli interaction by measuring inhibition of interaction by time-resolved fluorescence energy transfer (TRFRET) detection method; type: protein assay
[4] = PROTAC activity at human DM2/p53 extracted from Escherichia coli interaction by measuring inhibition of interaction by time-resolved fluorescence energy transfer (TRFRET) detection method
[5] = Permeability in human HeLa cells transfected with Halo-GFP-Mito assessed as accumulation in cytosol measured after 4 hrs incubation by chloroalkane penetration assay; type: ADME, subcellular

Sequence of Tumour suppressor protein p53/Mdm4 (Homo sapiens) (O15151 whole entry, looked up): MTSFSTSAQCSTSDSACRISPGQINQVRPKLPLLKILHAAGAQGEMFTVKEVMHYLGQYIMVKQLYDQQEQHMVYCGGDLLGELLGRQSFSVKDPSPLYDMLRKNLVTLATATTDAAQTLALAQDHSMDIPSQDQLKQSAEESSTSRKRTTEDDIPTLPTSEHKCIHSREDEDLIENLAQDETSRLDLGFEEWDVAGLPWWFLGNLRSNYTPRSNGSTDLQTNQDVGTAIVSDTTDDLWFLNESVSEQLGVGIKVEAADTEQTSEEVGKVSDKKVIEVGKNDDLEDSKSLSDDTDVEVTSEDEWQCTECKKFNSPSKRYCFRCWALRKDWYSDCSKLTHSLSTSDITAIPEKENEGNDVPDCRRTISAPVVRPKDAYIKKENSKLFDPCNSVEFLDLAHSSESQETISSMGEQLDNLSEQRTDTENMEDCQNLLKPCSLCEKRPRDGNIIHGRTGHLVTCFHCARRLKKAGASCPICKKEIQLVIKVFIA
Sequence of Tumour suppressor protein p53/Mdm4 (Homo sapiens) (P04637 whole entry, looked up): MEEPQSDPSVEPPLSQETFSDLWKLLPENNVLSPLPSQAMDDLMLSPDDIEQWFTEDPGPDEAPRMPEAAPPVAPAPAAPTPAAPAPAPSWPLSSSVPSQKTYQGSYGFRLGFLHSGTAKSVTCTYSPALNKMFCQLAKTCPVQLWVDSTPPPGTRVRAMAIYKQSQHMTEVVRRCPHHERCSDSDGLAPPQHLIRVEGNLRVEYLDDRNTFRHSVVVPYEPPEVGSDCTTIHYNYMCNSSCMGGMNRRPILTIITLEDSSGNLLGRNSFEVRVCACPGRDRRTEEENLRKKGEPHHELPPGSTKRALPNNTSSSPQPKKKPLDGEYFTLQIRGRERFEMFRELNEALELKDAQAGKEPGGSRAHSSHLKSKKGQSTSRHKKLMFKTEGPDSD
Sequence of Tumour suppressor p53/oncoprotein Mdm2 (Homo sapiens) (P04637 whole entry, looked up): as above
Sequence of Tumour suppressor p53/oncoprotein Mdm2 (Homo sapiens) (Q00987 whole entry, looked up): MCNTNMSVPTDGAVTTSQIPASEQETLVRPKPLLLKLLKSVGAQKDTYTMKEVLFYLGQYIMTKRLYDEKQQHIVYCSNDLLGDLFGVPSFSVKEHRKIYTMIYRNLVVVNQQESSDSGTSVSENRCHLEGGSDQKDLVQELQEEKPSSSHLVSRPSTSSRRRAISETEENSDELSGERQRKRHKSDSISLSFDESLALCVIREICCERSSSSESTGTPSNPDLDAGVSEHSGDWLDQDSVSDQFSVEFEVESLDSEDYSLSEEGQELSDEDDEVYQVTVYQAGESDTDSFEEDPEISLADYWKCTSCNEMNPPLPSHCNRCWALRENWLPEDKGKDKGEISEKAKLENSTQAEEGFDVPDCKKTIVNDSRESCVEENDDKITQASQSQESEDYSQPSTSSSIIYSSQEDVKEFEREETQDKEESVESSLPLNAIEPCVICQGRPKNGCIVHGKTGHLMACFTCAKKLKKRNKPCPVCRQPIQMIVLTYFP
Sequence of Tumour suppressor protein p53/Mdm4 (P04637 whole entry): as the sequence (P04637 whole entry, looked up) above
Sequence of Tumour suppressor protein p53/Mdm4 (O15151 whole entry): as the sequence (O15151 whole entry, looked up) above

inhibition [1] | inhibition [2] | IC50 [3] | IC50 [4] | EC50 [5] | SMILES
14% | 37% |  |  |  | CC(C)[C@@H](CNC(N)=O)NC(=O)NC[C@H](C)NC(=O)NC[C@H](C)NC(=O)[C@H](Cc1c[nH]c2ccccc12)NC(=O)[C@H](Cc1ccc(O)cc1)NC(=O)[C@@H]1CSCc2ccc(cc2)CSC[C@H](N)C(=O)N[C@@H](CO)C(=O)N[C@@H](Cc2ccccc2)C(=O)N[C@@H](C)C(=O)N1 (H-CSFACYW-X3; linker 1-5 via pXylylene)
47% | 79% |  |  |  | CC(C)[C@@H](CNC(N)=O)NC(=O)NC[C@H](C)NC(=O)NC[C@@H]1CSCCCCCSC[C@H](NC(=O)[C@H](Cc2ccccc2)NC(=O)[C@H](CO)NC(=O)[C@@H](N)[C@@H](C)O)C(=O)N[C@@H](CCC(=O)O)C(=O)N[C@@H](Cc2ccc(O)cc2)C(=O)N[C@@H](Cc2c[nH]c3ccccc23)C(=O)N1 (H-TSFCEYW; linker 4-C via X13)
10% | 7% |  |  |  | CC(C)[C@@H](CNC(N)=O)NC(=O)NC[C@@H]1CSCc2ccc(cc2)-c2ccc(cc2)CSC[C@H](N)C(=O)N[C@@H](CO)C(=O)N[C@@H](Cc2ccccc2)C(=O)N[C@@H](C)C(=O)N[C@@H](CCC(=O)O)C(=O)N[C@@H](Cc2ccc(O)cc2)C(=O)N[C@@H](Cc2c[nH]c3ccccc23)C(=O)N[C@@H](C)CNC(=O)N1 (H-CSFAEYW; linker 1-C via X9)
 |  | 23800 nM | 5.7 nM |  | CC(=O)N[C@@H](CCCCN)C(=O)N[C@H](C(=O)N[C@@H](Cc1ccccc1)C(=O)N[C@@H](C)C(=O)N[C@@H](CCC(=O)O)C(=O)N[C@@H](Cc1ccc(O)cc1)C(=O)N[C@@H](Cc1c[nH]c2ccccc12)C(=O)N[C@@H](C)CNC(=O)N[C@@H](C)CNC(=O)N[C@H](CNC(N)=O)C(C)C)[C@@H](C)O (Ac-KTFAEYW-X3)
 |  |  |  | 3300 nM | CC(C)[C@@H](CNC(N)=O)NC(=O)NC[C@H](C)NC(=O)NC[C@@H]1CSCC(=O)NCCNC(=O)CSC[C@H](NC(=O)[C@H](Cc2ccccc2)NC(=O)[C@H](CO)NC(=O)[C@H](CCCCN)NC(=O)[C@H](CCCNC(=N)N)NC(=O)[C@H](CCCNC(=N)N)NC(=O)[C@H](CCCNC(=N)N)NC(=O)CCC(=O)NCCOCCOCCCCCCCl)C(=O)N[C@@H](CCC(=O)O)C(=O)N[C@@H](Cc2ccc(O)cc2)C(=O)N[C@@H](Cc2c[nH]c3ccccc23)C(=O)N1 ({NH(CH2CH2O)2(CH2)6Cl-Suc}-RRRKSFCEYW; linker 7-C via X2)
 |  |  |  | 1900 nM | CC(C)[C@@H](CNC(N)=O)NC(=O)NC[C@H](C)NC(=O)NC[C@@H]1CSCCCCCCSC[C@H](NC(=O)[C@H](Cc2ccccc2)NC(=O)[C@H](CO)NC(=O)[C@H](CCCCN)NC(=O)[C@H](CCCNC(=N)N)NC(=O)[C@H](CCCNC(=N)N)NC(=O)[C@H](CCCNC(=N)N)NC(=O)CCC(=O)NCCOCCOCCCCCCCl)C(=O)N[C@@H](CCC(=O)O)C(=O)N[C@@H](Cc2ccc(O)cc2)C(=O)N[C@@H](Cc2c[nH]c3ccccc23)C(=O)N1 ({NH(CH2CH2O)2(CH2)6Cl-Suc}-RRRKSFCEYW; linker 7-C via X1)
50% | 86% | 108000 nM | 25.6 nM |  | CC(C)[C@@H](CNC(N)=O)NC(=O)NC[C@H](C)NC(=O)NC[C@@H]1CSCCCSC[C@H](NC(=O)[C@H](Cc2ccccc2)NC(=O)[C@H](CO)NC(=O)[C@@H](N)[C@@H](C)O)C(=O)N[C@@H](CCC(=O)O)C(=O)N[C@@H](Cc2ccc(O)cc2)C(=O)N[C@@H](Cc2c[nH]c3ccccc23)C(=O)N1 (H-TSFCEYW; linker 4-C via X5)
38% | 73% |  |  |  | CC(C)[C@@H](CNC(N)=O)NC(=O)NC[C@H](C)NC(=O)NC[C@H](C)NC(=O)[C@H](Cc1c[nH]c2ccccc12)NC(=O)[C@H](Cc1ccc(O)cc1)NC(=O)[C@@H]1CSCC(=O)NCCNC(=O)CSC[C@H](NC(=O)[C@@H](N)[C@@H](C)O)C(=O)N[C@@H](Cc2ccccc2)C(=O)N[C@@H](C)C(=O)N1 (H-TCFACYW-X3; linker 2-5 via CH2CONHCH2CH2NHCOCH2)
68% | 98% | 80000 nM | 23.4 nM |  | CC(C)[C@@H](CNC(N)=O)NC(=O)NC[C@H](C)NC(=O)NC[C@H](C)NC(=O)[C@H](Cc1c[nH]c2ccccc12)NC(=O)[C@H](Cc1ccc(O)cc1)NC(=O)[C@@H]1CSCCCSC[C@H](N)C(=O)N[C@@H](CO)C(=O)N[C@@H](Cc2ccccc2)C(=O)N[C@@H](C)C(=O)N1 (H-CSFACYW-X3; linker 1-5 via X4)
85% | 98% |  |  |  | CC(C)[C@@H](CNC(N)=O)NC(=O)NC[C@H](C)NC(=O)NC[C@H](C)NC(=O)[C@H](Cc1c[nH]c2ccccc12)NC(=O)[C@H](Cc1ccc(O)cc1)NC(=O)[C@H](CCC(=O)O)NC(=O)[C@H](C)NC(=O)[C@H](Cc1ccccc1)NC(=O)[C@H](CO)NC(=O)[C@@H](N)CCCCN (H-KSFAEYW-X3)
68% | 88% |  |  |  | CC(C)[C@@H](CNC(N)=O)NC(=O)NC[C@H](C)NC(=O)NC[C@H](C)NC(=O)[C@H](Cc1c[nH]c2ccccc12)NC(=O)[C@H](Cc1ccc(O)cc1)NC(=O)[C@@H]1CSC/C=C/CSC[C@H](N)C(=O)N[C@@H](CO)C(=O)N[C@@H](Cc2ccccc2)C(=O)N[C@@H](C)C(=O)N1 (H-CSFACYW-X3; linker 1-5 via X14)
